Data as given in US20230126893A1, “[(1,4,5-TRISUBSTITUTED-1H-PYRAZOL-3-YL)SULFANYL]ACETIC ACID DERIVATIVES, SALTS THEREOF, AND USE THEREOF AS ACTIVE HERBICIDAL INGREDIENTS” (BAYER AKTIENGESELLSCHAFT, priority 2020, published 2023).

Experiments:
Type in all cases: in vivo
Setaria viridis [1] = assay: Post-emergence herbicidal effect against SETVI; settings: 1280 g/ha, visual assessment about 3 weeks after treatment, 100% = plants have died, 0% = like control plants
Procedure: (§1) [table] 2. Post-emergence herbicidal effect and crop plant compatibility Seeds of monocotyledonous and dicotyledonous weed and crop plants are laid out in sandy loam soil in wood-fibre pots, covered with soil and cultivated in a greenhouse under good growth conditions. 2 to 3 weeks after sowing, the test plants are treated at the one-leaf stage. The compounds of the invention, formulated in the form of wettable powders (WP) or as emulsion concentrates (EC), are then sprayed onto the green parts of the plants as aqueous suspension or emulsion at a water application rate equating to 600 to 800 l/ha with addition of 0.2% wetting agent. After the test plants have been left to stand in the greenhouse under optimal growth conditions for about 3 weeks, the action of the preparations is assessed visually in comparison to untreated controls (herbicidal action in percent (%): 100% activity=the plants have died, 0% activity=like control plants).

Lolium rigidum = assay: Pre-emergence herbicidal effect against LOLRI; settings: 1280 g/ha, visual score after 3 weeks, 100% = plants have died, 0% = like control plants
Source text: (§2) 1. Pre-emergence herbicidal effect and crop plant compatibility Seeds of monocotyledonous and dicotyledonous weed plants and crop plants are laid out in sandy loam soil in wood-fibre pots and covered with soil. The compounds of the invention, formulated in the form of wettable powders (WP) or as emulsion concentrates (EC), are then applied to the surface of the covering soil as aqueous suspension or emulsion at a water application rate equating to 600 to 800 L/ha with addition of 0.2% wetting agent. After the treatment, the pots are placed in a greenhouse and kept under good growth conditions for the trial plants. The damage to the test plants is scored visually after a test period of 3 weeks by comparison with untreated controls (herbicidal activity in percent (%): 100% activity=the plants have died, 0% activity=like control plants). [table]

[2] = system: Tripleurospermum inodorum; assay: Pre-emergence herbicidal effect against MATIN; settings: 1280 g/ha, visual score after 3 weeks, 100% = plants have died, 0% = like control plants
Source text: as §2

Bassia scoparia = assay: Post-emergence herbicidal effect against KCHSC; settings: 1280 g/ha, visual assessment about 3 weeks after treatment, 100% = plants have died, 0% = like control plants
Procedure: as §1

Setaria viridis [3] = assay: Pre-emergence herbicidal effect against SETVI; settings: 1280 g/ha, visual score after 3 weeks, 100% = plants have died, 0% = like control plants
Source text: as §2

Alopecurus myosuroides [4] = assay: Post-emergence herbicidal effect against ALOMY; settings: 1280 g/ha, visual score after about 3 weeks, 100% = plants have died, 0% = like control plants
Procedure: as §1

Abutylon threophrasti = assay: Post-emergence herbicidal effect against ABUTH; settings: 1280 g/ha, visual assessment about 3 weeks after treatment, 100% = plants have died, 0% = like control plants
Procedure: as §1

Veronica persica [5] = assay: Pre-emergence herbicidal effect against VERPE; settings: 1280 g/ha, visual score after 3 weeks, 100% = plants have died, 0% = like control plants
Source text: as §2

Digitaria sanguinalis [6] = assay: Pre-emergence herbicidal effect against DIGSA; settings: 1280 g/ha, visual score after 3 weeks, 100% = plants have died, 0% = like control plants
Source text: as §2

Digitaria sanguinalis [7] = assay: Post-emergence herbicidal effect against DIGSA; settings: 1280 g/ha, visual score after about 3 weeks, 100% = plants have died, 0% = like control plants
Procedure: as §1

Poa annua [8] = assay: Pre-emergence herbicidal effect against POAAN; settings: 1280 g/ha, visual score after 3 weeks, 100% = plants have died, 0% = like control plants
Source text: as §2

[9] = system: Tripleurospermum inodorum; assay: Post-emergence herbicidal effect against MATIN; settings: 1280 g/ha, visual assessment about 3 weeks after treatment, 100% = plants have died, 0% = like control plants
Procedure: as §1

Stellaria media [10] = assay: Post-emergence herbicidal effect against STEME; settings: 1280 g/ha, visual assessment about 3 weeks after treatment, 100% = plants have died, 0% = like control plants
Procedure: as §1

Veronica persica [11] = assay: Post-emergence herbicidal effect against VERPE; settings: 1280 g/ha, visual assessment about 3 weeks after treatment, 100% = plants have died, 0% = like control plants
Procedure: as §1

Alopecurus myosuroides [12] = assay: Pre-emergence herbicidal effect against ALOMY; settings: 1280 g/ha, visual score after 3 weeks, 100% = plants have died, 0% = like control plants
Source text: as §2

Echinochloa crus-galli [13] = assay: Post-emergence herbicidal effect against ECHCG; settings: 1280 g/ha, visual score after about 3 weeks, 100% = plants have died, 0% = like control plants
Procedure: as §1

Stellaria media [14] = assay: Pre-emergence herbicidal effect against STEME; settings: 1280 g/ha, visual score after 3 weeks, 100% = plants have died, 0% = like control plants
Source text: as §2

Poa annua [15] = assay: Post-emergence herbicidal effect against POAAN; settings: 1280 g/ha, visual assessment about 3 weeks after treatment, 100% = plants have died, 0% = like control plants
Procedure: as §1

Amaranthus retroflexus [16] = assay: Pre-emergence herbicidal effect against AMARE; settings: 1280 g/ha, visual score after 3 weeks, 100% = plants have died, 0% = like control plants
Source text: as §2

Echinochloa crus-galli [17] = assay: Pre-emergence herbicidal effect against ECHCG; settings: 1280 g/ha, visual score after 3 weeks, 100% = plants have died, 0% = like control plants
Source text: as §2

Amaranthus retroflexus [18] = assay: Post-emergence herbicidal effect against AMARE; settings: 1280 g/ha, visual assessment about 3 weeks after treatment, 100% = plants have died, 0% = like control plants
Procedure: as §1

| SMILES | Pre-emergence action against LOLRI (Lolium rigidum) | Pre-emergence action against MATIN [2] | Post-emergence action against KCHSC (Bassia scoparia) | Pre-emergence action against SETVI (Setaria viridis [3]) | Post-emergence action against ALOMY (Alopecurus myosuroides [4]) | Post-emergence action against ABUTH (Abutylon threophrasti) | Pre-emergence action against VERPE (Veronica persica [5]) | Pre-emergence action against DIGSA (Digitaria sanguinalis [6]) | Post-emergence action against DIGSA (Digitaria sanguinalis [7]) | Pre-emergence action against POAAN (Poa annua [8]) | Post-emergence action against MATIN [9] | Post-emergence action against STEME (Stellaria media [10]) | Post-emergence action against VERPE (Veronica persica [11]) | Pre-emergence action against ALOMY (Alopecurus myosuroides [12]) | Post-emergence action against ECHCG (Echinochloa crus-galli [13]) | Pre-emergence action against STEME (Stellaria media [14]) | Post-emergence action against POAAN (Poa annua [15]) | Pre-emergence action against AMARE (Amaranthus retroflexus [16]) | Pre-emergence action against ECHCG (Echinochloa crus-galli [17]) | Post-emergence action against AMARE (Amaranthus retroflexus [18]) | other results |
| --- | --- | --- | --- | --- | --- | --- | --- | --- | --- | --- | --- | --- | --- | --- | --- | --- | --- | --- | --- | --- | --- |
| COC(=O)CNC(=O)CSc1nn(-c2ccccc2F)c(-c2ccc(F)c(F)c2)c1Cl [VII-001] | 100% | 100% | 90% | 100% | 100% | 90% | 100% | 100% | 100% | 100% | 90% | 90% | 90% | 90% | 100% | 100% | 100% | – | – | – | Post-emergence action against SETVI (Setaria viridis [1]): 90% |
| CCOC(=O)CSc1nn(-c2cc(F)ccc2F)c(-c2ccc(F)cc2)c1Br [Example I-020] | 100% | 100% | 90% | 100% | 100% | – | 100% | 100% | 90% | 100% | 90% | 90% | 90% | 90% | 90% | 100% | 90% | – | – | – | Post-emergence action against SETVI (Setaria viridis [1]): 90% |
| Cc1cnsc1-c1c(Br)c(SCC(=O)O)nn1-c1ccccc1F [Example V-002] | – | 100% | – | 100% | – | – | – | – | – | 100% | – | – | – | – | – | – | – | 100% | – | – | – |
| CCOC(=O)CSc1nn(-c2ccccc2F)c(-c2ccc(F)c(F)c2)c1C(F)(F)F [Example I-018] | 100% | 100% | – | 100% | – | 90% | 100% | 100% | 90% | 100% | 90% | – | 100% | 90% | 90% | 100% | 100% | – | 100% | – | Post-emergence action against SETVI (Setaria viridis [1]): 100% |
| CCOC(=O)CSc1nn(-c2ccccc2F)c(-c2cc(Cl)cs2)c1Br [IV-001] | 90% | 90% | – | – | – | – | 90% | – | – | 90% | – | – | 90% | – | – | 100% | – | 100% | – | 90% | – |
| O=C(O)CSc1nn(-c2ccccc2F)c(-c2cc(F)cc(Cl)c2)c1Br [Example I-009] | 100% | 100% | 100% | 100% | – | 90% | 90% | 100% | – | 100% | 100% | 100% | 90% | 90% | – | 100% | 100% | 100% | 90% | 100% | – |
| O=C(O)CSc1nn(-c2ccccc2F)c(-c2ccc(F)c(F)c2)c1[N+](=O)[O-] [Example I-024] | 100% | 100% | 90% | 100% | 100% | 90% | 100% | 100% | 100% | 100% | 100% | – | 100% | 90% | 90% | 100% | 100% | – | 90% | – | Post-emergence action against SETVI (Setaria viridis [1]): 100% |
| O=C(O)CSc1nn(-c2ccccc2)c(-c2cncnc2)c1Br [III-002] | – | 100% | – | 100% | – | – | 100% | 100% | – | 100% | 90% | 90% | 100% | – | – | 100% | 100% | 100% | 100% | – | – |
| CC(Sc1nn(-c2ccccc2F)c(-c2ccc(F)c(F)c2)c1Br)C(=O)O (centres unmarked) [Example I-022] | 100% | 90% | 90% | 100% | 100% | 90% | 100% | 100% | 90% | 90% | 100% | 90% | 100% | 90% | 100% | 100% | 100% | 90% | 90% | – | – |
| CCOC(=O)CSc1nn(-c2ccccc2F)c(-c2cnccn2)c1Br [VI-001] | – | 90% | – | – | 90% | 90% | – | 90% | – | 100% | 100% | – | 90% | – | – | 90% | 100% | – | – | 90% | – |
| CCOC(=O)CSc1nn(-c2ccccc2F)c(-c2sncc2C)c1Br [Example V-001] | – | 90% | – | – | – | – | – | 90% | – | 90% | – | – | 90% | – | – | – | – | 100% | – | 100% | – |
| CCOC(=O)CSc1nn(-c2cccc(F)c2F)c(-c2ccccc2)c1Br [Example I-004] | 100% | 100% | – | 100% | 100% | – | 100% | 100% | – | 100% | 100% | 90% | 90% | 90% | – | 100% | 100% | 100% | 90% | 90% | – |
